Results from ChEMBL document CHEMBL1201862, “PubChem BioAssay data set” (2004).
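Grown in 96-well plates, cells were treated for 48 hours with each compound at five concentrations. Insufficient inhibition: endpoint recorded as highest concentration tested. The concentration for 50% growth inhibition is given as GI50.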 Calls of active or inactive are those of the source. Cut-off read from the data, not from the text of the source: active = GI50 up to about 1.1 µM and inactive = higher.

Key:
Test in all cases: NCI anticancer screen, dose series, 48 h
A549 = tested on: A549
BT-549 = tested on: BT-549
DU-145 = tested on: DU-145
HCT-15 = tested on: HCT-15
HL-60 = tested on: HL-60
HOP-92 = tested on: HOP-92
LOX IMVI = tested on: LOX IMVI
MDA-N = tested on: MDA-N
MOLT-4 = tested on: MOLT-4
OVCAR-4 = tested on: OVCAR-4
OVCAR-8 = tested on: OVCAR-8
PC-3 = tested on: PC-3
RPMI-8226 = tested on: RPMI-8226
SF-268 = tested on: SF-268
SF-539 = tested on: SF-539
SN12C = tested on: SN12C
SW-620 = tested on: SW-620
T47D = tested on: T47D
TK-10 = tested on: TK-10
UACC-257 = tested on: UACC-257

Structure (SMILES)	GI50 (A549)	GI50 (BT-549)	GI50 (DU-145)	GI50 (HCT-15) [µM]	GI50 (HL-60)	GI50 (HOP-92)	GI50 (LOX IMVI)	GI50 (MDA-N)	GI50 (MOLT-4)	GI50 (OVCAR-4)	GI50 (OVCAR-8)	GI50 (PC-3)	GI50 (RPMI-8226)	GI50 (SF-268)	GI50 (SF-539)	GI50 (SN12C)	GI50 (SW-620)	GI50 (T47D)	GI50 (TK-10)	GI50 (UACC-257)
COc1cc(/C=C/C(=O)N[C@@H]2C(=O)N3[C@@H]2SC(C)(C)[C@@H]3C(=O)O)ccc1O	> 100 µM (inactive)	> 100 µM (inactive)	> 100 µM (inactive)	> 100	> 100 µM (inactive)	> 100 µM (inactive)	75 µM (inactive)	> 100 µM (inactive)	> 100 µM (inactive)	> 100 µM (inactive)	> 100 µM (inactive)	> 100 µM (inactive)	> 100 µM (inactive)	> 100 µM (inactive)	> 100 µM (inactive)	> 100 µM (inactive)	> 100 µM (inactive)	> 100 µM (inactive)	> 100 µM (inactive)	> 100 µM (inactive)
O=C1C=CC(=O)c2ccc(=O)ccc21	30.1 µM (inactive)	17.7 µM (inactive)	28.1 µM (inactive)	17	2.1 µM (inactive)	1.89 µM (inactive)	4.7 µM (inactive)	13.3 µM (inactive)	1.87 µM (inactive)	9.29 µM (inactive)	17.5 µM (inactive)	17.8 µM (inactive)	3.15 µM (inactive)	17.1 µM (inactive)	21.8 µM (inactive)	17.3 µM (inactive)	3.74 µM (inactive)	2.34 µM (inactive)	17.6 µM (inactive)	17.1 µM (inactive)
C=C1C(=O)C23CC1CCC2C12CO[C@H](O)[C@H]1C(C)(C)[C@H](OC(C)=O)C[C@H]2OC3=O (stereo not given in full)	> 100 µM (inactive)	9.48 µM (inactive)	25.5 µM (inactive)	14.6	16.6 µM (inactive)	10.1 µM (inactive)	18.1 µM (inactive)	16.1 µM (inactive)	15.2 µM (inactive)	> 100 µM (inactive)	30.6 µM (inactive)	> 100 µM (inactive)	76.7 µM (inactive)	14.7 µM (inactive)	20 µM (inactive)	21.1 µM (inactive)	14.3 µM (inactive)	19.7 µM (inactive)	14.3 µM (inactive)	30.3 µM (inactive)
O=c1cc(-c2ccccc2)oc2cc(Oc3nnnn3-c3ccccc3)ccc12	31.6 µM (inactive)	21.4 µM (inactive)	32.5 µM (inactive)	29	30.5 µM (inactive)	2.37 µM (inactive)	38.9 µM (inactive)	41.5 µM (inactive)	32.4 µM (inactive)	19.9 µM (inactive)	34.8 µM (inactive)	39.4 µM (inactive)	51.4 µM (inactive)	15 µM (inactive)	22.4 µM (inactive)	60.8 µM (inactive)	> 100 µM (inactive)	11.7 µM (inactive)	67 µM (inactive)	32.5 µM (inactive)
OCCN1CN(c2nc(N3CN(CCO)C3)nc(N3CN(CCO)C3)n2)C1	83.4 µM (inactive)	32.6 µM (inactive)	23.6 µM (inactive)	22.3	16 µM (inactive)	19.9 µM (inactive)	14.8 µM (inactive)	18.1 µM (inactive)	33.7 µM (inactive)	30.6 µM (inactive)	45.6 µM (inactive)	22.1 µM (inactive)	27.6 µM (inactive)	22.6 µM (inactive)	18.2 µM (inactive)	18 µM (inactive)	30 µM (inactive)	25.8 µM (inactive)	30.6 µM (inactive)	18.9 µM (inactive)
COC(=O)C1=COC(C)C2C[n+]3ccc4c([nH]c5ccccc54)c3CC12 (stereo not given)	> 100 µM (inactive)	> 100 µM (inactive)	> 100 µM (inactive)	75.2	> 100 µM (inactive)	> 100 µM (inactive)	> 100 µM (inactive)	> 100 µM (inactive)	38.9 µM (inactive)	81.7 µM (inactive)	> 100 µM (inactive)	> 100 µM (inactive)	> 100 µM (inactive)	> 100 µM (inactive)	> 100 µM (inactive)	> 100 µM (inactive)	> 100 µM (inactive)	36.6 µM (inactive)	> 100 µM (inactive)	> 100 µM (inactive)
O=C1CC(c2n[nH]c3ccccc23)C(=O)N1c1ccccc1 (stereo not given)	> 100 µM (inactive)	> 100 µM (inactive)	> 100 µM (inactive)	> 100	25.6 µM (inactive)	> 78.2 µM (inactive)	> 100 µM (inactive)	> 100 µM (inactive)	> 74 µM (inactive)	> 100 µM (inactive)	> 100 µM (inactive)	> 100 µM (inactive)	82.8 µM (inactive)	> 100 µM (inactive)	> 100 µM (inactive)	> 100 µM (inactive)	> 84.1 µM (inactive)	> 100 µM (inactive)	> 100 µM (inactive)	> 100 µM (inactive)
O=C1NC2c3c(I)sc(I)c3C(=O)C2O1 (stereo not given)	14.1 µM (inactive)	5.53 µM (inactive)	14 µM (inactive)	2.08	1.09 µM (active)	3.38 µM (inactive)	2.16 µM (inactive)	2.96 µM (inactive)	3.58 µM (inactive)	9.35 µM (inactive)	2.84 µM (inactive)	6.9 µM (inactive)	8.15 µM (inactive)	6.76 µM (inactive)	2.56 µM (inactive)	4.27 µM (inactive)	2.82 µM (inactive)	15.9 µM (inactive)	10.9 µM (inactive)	4.97 µM (inactive)
